Experimental data from US10730875B2, “Substituted imidazo[1,2-A]pyridin-2-ylamine compounds, and pharmaceutical compositions and methods of use thereof” (JN Therapeutics, priority 2015, dated 2020).

Legend:
Type in all cases: biochemical
[1] = target: human Janus kinase 1 (JAK1), recombinant catalytic domain (Homo sapiens (Human), UniProt P23458); experiment: LanthaScreen TR-FRET enzymatic assay, JAK1; settings: 1 mM ATP, GFP-STAT1 substrate, read-out: Inhibitory Activity IC50 JAK1
In short: (§1)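 Insect-cell-expressed catalytic domains (JAK1 aa 866-1154, 440 ng/mL; JAK2 aa 808-1132, 11 ng/mL; JAK3 aa 781-1124, 400 ng/mL; TYK2 aa 833-1187, 200 ng/mL) preincubated 15 min with compound, then reacted 1 h at room temperature with 100 nM GFP-STAT1 and 1 mM ATP. pTyr701 detected by TR-FRET (terbium antibody); IC50 from 10-dose sigmoid fits.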

[2] = target: human Janus kinase 2 (JAK2), recombinant catalytic domain (Homo sapiens (Human), UniProt O60674); experiment: LanthaScreen TR-FRET enzymatic assay, JAK2
human Janus kinase 2 (JAK2), recombinant catalytic domain, sequence (O60674 808-1132): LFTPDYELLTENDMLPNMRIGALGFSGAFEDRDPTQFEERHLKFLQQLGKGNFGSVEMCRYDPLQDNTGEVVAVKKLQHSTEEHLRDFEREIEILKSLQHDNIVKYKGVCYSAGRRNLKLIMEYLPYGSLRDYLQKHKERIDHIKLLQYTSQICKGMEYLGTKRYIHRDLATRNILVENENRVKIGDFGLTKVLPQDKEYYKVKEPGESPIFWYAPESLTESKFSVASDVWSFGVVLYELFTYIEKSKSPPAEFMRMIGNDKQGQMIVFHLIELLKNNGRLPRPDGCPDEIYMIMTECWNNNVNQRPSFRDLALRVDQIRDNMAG
In short: as §1

[3] = target: human Janus kinase 3 (JAK3), recombinant catalytic domain (Homo sapiens (Human), UniProt P52333); experiment: LanthaScreen TR-FRET enzymatic assay, JAK3; settings: TR-FRET, 1 mM ATP, GFP-STAT1 substrate; read-out: Inhibitory Activity IC50 JAK3
human Janus kinase 3 (JAK3), recombinant catalytic domain (Homo sapiens (Human), UniProt P52333), sequence (P52333 781-1124): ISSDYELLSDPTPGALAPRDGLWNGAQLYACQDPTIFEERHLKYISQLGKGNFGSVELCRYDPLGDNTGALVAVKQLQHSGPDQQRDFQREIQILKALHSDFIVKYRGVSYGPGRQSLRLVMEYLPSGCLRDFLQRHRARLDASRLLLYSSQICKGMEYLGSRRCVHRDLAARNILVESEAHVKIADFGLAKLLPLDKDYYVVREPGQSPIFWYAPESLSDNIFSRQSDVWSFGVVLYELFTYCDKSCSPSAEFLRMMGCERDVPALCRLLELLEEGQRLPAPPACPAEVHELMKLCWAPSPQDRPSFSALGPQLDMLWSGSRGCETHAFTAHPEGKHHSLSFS
In short: as §1

[4] = system: human Janus kinase 3 (JAK3), recombinant catalytic domain; experiment: LanthaScreen TR-FRET enzymatic assay, JAK3; settings: ratio of IC50 against JAK3 over IC50 against JAK1
In short: as §1

[5] = target: human tyrosine kinase 2 (TYK2), recombinant catalytic domain (Homo sapiens (Human), UniProt P29597); experiment: LanthaScreen TR-FRET enzymatic assay, TYK2; settings: TR-FRET, 1 mM ATP, GFP-STAT1 substrate; read-out: Inhibitory Activity IC50 TYK2
human tyrosine kinase 2 (TYK2), recombinant catalytic domain (Homo sapiens (Human), UniProt P29597), sequence (P29597 833-1187): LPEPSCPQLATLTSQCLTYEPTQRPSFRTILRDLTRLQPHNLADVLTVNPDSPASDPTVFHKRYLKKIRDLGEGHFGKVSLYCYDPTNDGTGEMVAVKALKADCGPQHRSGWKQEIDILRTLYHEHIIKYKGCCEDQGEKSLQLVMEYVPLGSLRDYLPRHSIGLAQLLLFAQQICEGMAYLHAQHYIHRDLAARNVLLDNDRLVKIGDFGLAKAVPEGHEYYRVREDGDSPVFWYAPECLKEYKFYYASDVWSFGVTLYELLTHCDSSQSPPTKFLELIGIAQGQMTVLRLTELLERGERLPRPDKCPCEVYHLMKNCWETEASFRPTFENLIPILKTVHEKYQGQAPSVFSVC
In short: as §1

[6] = system: human tyrosine kinase 2 (TYK2), recombinant catalytic domain; experiment: LanthaScreen TR-FRET enzymatic assay, TYK2; settings: ratio of IC50 against TYK2 over IC50 against JAK1
In short: as §1

human Janus kinase 1 (JAK1), recombinant catalytic domain, sequence (P23458 866-1154): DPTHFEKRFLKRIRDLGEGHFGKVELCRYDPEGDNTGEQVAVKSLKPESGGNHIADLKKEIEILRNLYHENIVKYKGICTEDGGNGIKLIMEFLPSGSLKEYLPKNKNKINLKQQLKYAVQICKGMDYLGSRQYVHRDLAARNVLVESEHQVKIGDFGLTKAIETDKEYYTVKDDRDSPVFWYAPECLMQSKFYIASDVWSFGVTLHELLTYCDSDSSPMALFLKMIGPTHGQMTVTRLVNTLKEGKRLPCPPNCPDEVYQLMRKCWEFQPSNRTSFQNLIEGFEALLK

Structure (SMILES): O=C(Nc1cn2c(-c3ccc(CN4CCS(=O)(=O)CC4)cc3F)cccc2n1)C1CC1 [Compound 14]
- IC50 [1]: ≤ 500 nM
- IC50 ([2]; TR-FRET, 1 mM ATP, GFP-STAT1 substrate, read-out: Inhibitory Activity IC50 JAK2): 1000 to 5000 nM
- Selectivity JAK2/JAK1 ([2]; ratio of IC50 against JAK2 over IC50 against JAK1): A′ (A′ represents a ratio of greater than 8)
- IC50 [3]: > 5 µM
- Selectivity JAK3/JAK1 [4]: A′ (A′ represents a ratio of greater than 8)
- IC50 [5]: 1000 to 5000 nM
- Selectivity TYK2/JAK1 [6]: A′ (A′ represents a ratio of greater than 8)
